{"source": "patent US20110015080A1", "about": "“Solution-based methods for RNA expression profiling” (MASSACHUSETTS INSTITUTE OF TECHNOLOGY, priority 2005, published 2011)", "system": "HL60 (human promyelocytic leukemia) cells", "assay": "LMA-FlexMAP bead-based gene expression signature analysis of total RNA from HL60 cells treated with tretinoin or DMSO (ninety transcripts); for FlexMap GAPDH M LUA#94: test concentration or dose not given here; for FlexMap NM 000147 LUA#29: test concentration or dose not given here; for FlexMap NM 001948 LUA#84: test concentration or dose not given here", "key": {"[1]": {"details": "Experiment 2, Tretinoin, replicate columns"}}, "note": "Where “and” joins values, the source holds several entries; their conditions need not be identical. Equal entries are not always repeated.", "data": [{"smiles": "CC1=C(/C=C/C(C)=C/C=C/C(C)=C/C(=O)O)C(C)(C)CCC1", "note": "[tretinoin, all-trans-retinoic acid]", "values": [{"measurement": "NM_005952 LUA#66 FlexMAP signal", "setting": "Experiment 1, tretinoin-treated HL60, transcript NM_005952, replicate columns", "value": "172 and 212 and 149 and 198.5 and 72.5 and 189 and 203 and 95.5 and 188.5 and 182"}, {"measurement": "NM_005980 LUA#73 FlexMAP signal", "setting": "Experiment 1, tretinoin-treated HL60, transcript NM_005980, replicate columns", "value": "145 and 173 and 163 (2×) and 57 and 142 and 74 and 149.5 and 151"}, {"measurement": "NM_006019 LUA#35 FlexMAP signal", "setting": "Experiment 1, tretinoin-treated HL60, transcript NM_006019, replicate columns", "value": "746 and 867 and 569 and 818 and 186 and 828 and 762 and 287 and 767 and 734.5"}, {"measurement": "NM_006138 LUA#56 FlexMAP signal", "setting": "Experiment 1, tretinoin-treated HL60, transcript NM_006138, replicate columns", "value": "114 and 130 and 93 and 124 and 51.5 and 113.5 and 115.5 and 66 and 122 and 114.5"}, {"measurement": "NM_006432 LUA#27 FlexMAP signal", "setting": "Experiment 1, tretinoin-treated HL60, transcript NM_006432, replicate columns", "value": "1294.5 and 1495 and 1081.5 and 1409.5 and 397 and 1446 and 1405 and 625 and 1345 and 1203"}, {"measurement": "NM_006452 LUA#71 FlexMAP signal", "setting": "Experiment 1, tretinoin-treated HL60, transcript NM_006452, replicate columns", "value": "78.5 and 76 and 67.5 and 79.5 and 41 and 75 and 68 and 53.5 and 82 and 74"}, {"measurement": "NM_006985 LUA#58 FlexMAP signal", "setting": "Experiment 1, tretinoin-treated HL60, transcript NM_006985, replicate columns", "value": "52 and 54 and 47 and 59 and 37 and 55 and 56 and 40 and 57 and 51"}, {"measurement": "NM_007282 LUA#16 FlexMAP signal", "setting": "Experiment 1, tretinoin-treated HL60, transcript NM_007282, replicate columns", "value": "60.5 and 60 and 39 and 64.5 (2×) and 42.5 and 64 and 62 and 56 and 61"}, {"measurement": "NM_014333 LUA#26 FlexMAP signal", "setting": "Experiment 1, tretinoin-treated HL60, transcript NM_014333, replicate columns", "value": "472 and 584 and 366.5 and 531 and 134 and 492 and 530 and 197.5 and 497 and 459.5"}, {"measurement": "NM_014366 LUA#61 FlexMAP signal", "setting": "Experiment 1, tretinoin-treated HL60, transcript NM_014366, replicate columns", "value": "213 and 263 and 163 and 235 (2×) and 66 and 231 (2×) and 97 and 209.5"}, {"measurement": "NM_014573 LUA#70 FlexMAP signal", "setting": "Experiment 1, tretinoin-treated HL60, transcript NM_014573, replicate columns", "value": "135 and 155 (2×) and 99 and 153.5 and 61 and 138 and 79 and 138.5 and 144.5"}, {"measurement": "NM_015201 LUA#57 FlexMAP signal", "setting": "Experiment 1, tretinoin-treated HL60, transcript NM_015201, replicate columns", "value": "181 and 226.5 and 139 and 222 and 64 and 208 and 203 and 87 and 194.5 and 183"}, {"measurement": "NM_018115 LUA#63 FlexMAP signal", "setting": "Experiment 1, tretinoin-treated HL60, transcript NM_018115, replicate columns", "value": "506.5 and 644 and 552.5 and 735.5 and 143 and 690 and 601 and 227.5 and 582 and 418"}, {"measurement": "NM_018164 LUA#69 FlexMAP signal", "setting": "Experiment 1, tretinoin-treated HL60, transcript NM_018164, replicate columns", "value": "140.5 and 177 and 131 and 165 and 57 and 152.5 and 155 and 75 and 143 and 142"}, {"measurement": "NM_018256 LUA#83 FlexMAP signal", "setting": "Experiment 1, tretinoin-treated HL60, transcript NM_018256, replicate columns", "value": "1557 and 747 and 897 and 726 and 388 and 903 and 998 and 589 and 1256.5 and 1208"}, {"measurement": "NM_018890 LUA#33 FlexMAP signal", "setting": "Experiment 1, tretinoin-treated HL60, transcript NM_018890, replicate columns", "value": "705 and 824 and 537.5 and 758 and 187.5 and 788 and 743.5 and 293.5 and 719 and 712"}, {"measurement": "NM_019058 LUA#75 FlexMAP signal", "setting": "Experiment 1, tretinoin-treated HL60, transcript NM_019058, replicate columns", "value": "143.5 and 158 (2×) and 143 and 164 and 59 and 152 and 79.5 and 148.5 and 129"}, {"measurement": "NM_020117 LUA#78 FlexMAP signal", "setting": "Experiment 1, tretinoin-treated HL60, transcript NM_020117, replicate columns", "value": "527 and 607 and 408 and 584.5 and 145 and 554 and 564 and 230 and 529.5 and 519"}, {"measurement": "NM_021103 LUA#41 FlexMAP signal", "setting": "Experiment 1, tretinoin-treated HL60, transcript NM_021103, replicate columns", "value": "2412 and 2719 and 2257.5 and 2689 and 925 and 2668.5 and 2611 and 1370 and 2590 and 2454"}, {"measurement": "NM_021203 LUA#80 FlexMAP signal", "setting": "Experiment 1, tretinoin-treated HL60, transcript NM_021203, replicate columns", "value": "547 and 654 and 442.5 and 642.5 and 151 and 578.5 and 611 and 228.5 and 563 and 546"}, {"measurement": "NM_021974 LUA#64 FlexMAP signal", "setting": "Experiment 1, tretinoin-treated HL60, transcript NM_021974, replicate columns", "value": "1003 and 1158 and 872 and 1105 and 293.5 and 1102.5 and 1052.5 and 477.5 and 1068 and 955"}, {"measurement": "NM_024045 LUA#65 FlexMAP signal", "setting": "Experiment 1, tretinoin-treated HL60, transcript NM_024045, replicate columns", "value": "124 and 146 and 100 and 145 and 52 and 141 and 142 and 69 and 133 and 119"}, {"measurement": "TFRC LUA#92 FlexMAP signal", "setting": "Experiment 1, tretinoin-treated HL60, transcript TFRC, replicate columns", "value": "250 and 305 and 191.5 and 285 and 81.5 and 280.5 and 289 and 109 and 272 and 251.5"}, {"measurement": "FlexMap ACTB LUA#91", "setting": "[1]", "value": "2807 and 2986 and 107 and 2939 and 1020 and 2820 and 2870 and 2791 and 2727 and 2873.5"}, {"measurement": "FlexMap GAPDH_3 LUA#95", "setting": "[1]", "value": "3075 and 2896 and 139.5 and 2850 and 1137 and 3025 and 3066 and 2936 and 2973 and 3162.5"}, {"measurement": "FlexMap GAPDH_5 LUA#93", "setting": "[1]", "value": "1888 and 1977.5 and 72 and 1965.5 and 509 and 1847 and 2001 and 1834.5 and 1691 and 1994"}, {"measurement": "FlexMap GAPDH_M LUA#94", "setting": "[1]", "value": "1814 and 1595.5 and 73 and 1871 and 514 and 1911 and 2010.5 and 1693.5 and 1762.5 and 1932.5"}, {"measurement": "FlexMap NM_000147 LUA#29", "setting": "[1]", "value": "1102 and 1135 and 36 and 1106 and 236 and 1132 and 1122.5 and 1051 and 1086 and 1171"}, {"measurement": "FlexMap NM_000211 LUA#39", "setting": "[1]", "value": "1639.5 and 1219 and 89 and 1828 and 470 and 1717 and 1734.5 and 1593.5 and 1570 and 1763"}, {"measurement": "FlexMap NM_000250 LUA#87", "setting": "[1]", "value": "236 and 228 and 39 and 249 and 70 and 246 and 243 and 232 and 239.5 and 253"}, {"measurement": "FlexMap NM_000414 LUA#22", "setting": "[1]", "value": "564.5 and 544 and 34 and 547 and 115.5 and 596 and 561.5 and 550.5 and 543 and 598.5"}, {"measurement": "FlexMap NM_000433 LUA#28", "setting": "[1]", "value": "786.5 and 574 and 34 and 810 and 158 and 860 and 842 and 753 and 724 and 823"}, {"measurement": "FlexMap NM_000584 LUA#30", "setting": "[1]", "value": "2339.5 and 2517.5 and 72 and 2315 and 665 and 2389 and 2341.5 and 2247 and 2269 and 2450"}, {"measurement": "FlexMap NM_000884 LUA#81", "setting": "[1]", "value": "963.5 and 841 and 61 and 951 and 259.5 and 1004 and 988 and 925 and 916 and 1010"}, {"measurement": "FlexMap NM_001034 LUA#67", "setting": "[1]", "value": "260 and 246 and 32.5 and 280 and 65 and 281 and 253 and 271 and 252 and 276"}, {"measurement": "FlexMap NM_001101 LUA#34", "setting": "[1]", "value": "3017 and 2733 and 211 and 3046 and 1578 and 3029 and 3195 and 2934 and 2997 and 3139.5"}, {"measurement": "FlexMap NM_001469 LUA#79", "setting": "[1]", "value": "1315 and 1107 and 73 and 1230 and 333.5 and 1437 and 1331.5 and 1308 and 1281.5 and 1360"}, {"measurement": "FlexMap NM_001498 LUA#18", "setting": "[1]", "value": "494.5 and 511 and 32 and 521 and 110.5 and 507.5 and 513 and 441.5 and 467 and 531.5"}, {"measurement": "FlexMap NM_001684 LUA#23", "setting": "[1]", "value": "71 and 75 and 30 and 98 and 38.5 and 66 and 79 and 68 and 77.5 and 83"}, {"measurement": "FlexMap NM_001948 LUA#84", "setting": "[1]", "value": "72 and 70 and 33 and 79.5 and 40 and 68 (2×) and 70.5 and 62 and 81"}, {"measurement": "FlexMap NM_002166 LUA#25", "setting": "[1]", "value": "227 and 254.5 and 30 and 237 and 60 and 230 and 240 and 221 and 242"}, {"measurement": "FlexMap NM_002467 LUA#90", "setting": "[1]", "value": "741 and 823 (2×) and 762.5 and 205 and 792 and 798 and 776 and 759"}, {"measurement": "FlexMap NM_002468 LUA#40", "setting": "[1]", "value": "531.5 and 584 and 35 and 511 and 135 and 556.5 and 549 and 498 and 494 and 589.5"}, {"measurement": "FlexMap NM_002539 LUA#74", "setting": "[1]", "value": "416 and 397 and 33 and 437 and 89 and 423 and 409 and 392 and 368 and 441"}, {"measurement": "FlexMap NM_002624 LUA#36", "setting": "[1]", "value": "1647.5 and 1643 and 71 and 1714 and 670 and 1664 and 1757 and 1580.5 and 1616 and 1772.5"}, {"measurement": "FlexMap NM_002664 LUA#38", "setting": "[1]", "value": "2701.5 and 2723 and 91 and 2815 and 1002 and 2840.5 and 2805 and 2642 and 2652 and 2875"}, {"measurement": "FlexMap NM_002970 LUA#42", "setting": "[1]", "value": "1716.5 and 1563 and 42 and 1624 and 435.5 and 1759.5 and 1743 and 1655.5 and 1575 and 1823"}, {"measurement": "FlexMap NM_002982 LUA#45", "setting": "[1]", "value": "3697 and 3859 and 294 and 3328 and 2094 and 3522 and 3632 and 3562 and 3485 and 3768"}]}]}
